From ChEMBL document CHEMBL4334464, “From Phenylthiazoles to Phenylpyrazoles: Broadening the Antibacterial Spectrum toward Carbapenem-Resistant Bacteria” (J Med Chem, 2019)
In brackets after ≈: the same amount, converted by molar mass. Activity calls are given as the source filed them. The rule behind the calls is not given here.

Assays:
Clostridioides difficile = experiment: Ratio of MBC to MIC for Clostridium difficile ATCC BAA 1870; type: functional
Streptococcus pneumoniae [1] = experiment: Ratio of MBC to MIC for cephalosporin-resistant Streptococcus pneumoniae ATCC 51916 clinical isolates; type: functional
Acinetobacter baumannii [2] = experiment: microbe, parasite or virus in culture; conditions: ATCC BAA 1747
Description: Antibacterial activity against Acinetobacter baumannii ATCC BAA 1747 after 18 to 20 hrs in aerobic condition by CLSI-based broth microdilution assay

Klebsiella pneumoniae [3] = experiment: Ratio of MBC to MIC for Klebsiella pneumoniae BAA-1144 clinical isolates; type: functional
[4] = system: Enterobacter cloacae subsp. cloacae; experiment: Ratio of MBC to MIC for Enterobacter cloacae subsp. cloacae ATCC BAA-1143 clinical isolates; type: functional
[5] = system: Staphylococcus epidermidis; experiment: Ratio of MBC to MIC for Staphylococcus epidermidis NRS101 clinical isolates; type: functional
Shigella flexneri [6] = experiment: Antibacterial activity against Shigella flexneri ATCC 9199 clinical isolates after 18 to 20 hrs in aerobic condition by CLSI-based broth microdilution assay; type: functional
Escherichia coli [7] = experiment: Antibacterial activity against Escherichia coli ATCC 35150 clinical isolates after 18 to 20 hrs in aerobic condition by CLSI-based broth microdilution assay; type: functional
Pseudomonas aeruginosa [8] = experiment: Antibacterial activity against Pseudomonas aeruginosa ATCC 15442 clinical isolates after 18 to 20 hrs in aerobic condition by CLSI-based broth microdilution assay; type: functional
Salmonella enterica = experiment: Antibacterial activity against Salmonella enterica NR-170 clinical isolates after 18 to 20 hrs in aerobic condition by CLSI-based broth microdilution assay; type: functional
Staphylococcus aureus [9] = experiment: Bactericidal activity against methicillin-resistant Staphylococcus aureus NRS123-USA400 clinical isolates at 5 times MIC incubated over 24 hrs followed by replating on tryptic soy agar plate and further incubated for 18 to 20 hrs by time kill assay; type: functional, organism-based
Escherichia coli [10] = experiment: Inhibition of 6His tagged Escherichia coli UPPP expressed in Escherichia coli C41(DE3) cells preincubated for 15 mins followed by FPP substrate addition and measured after 20 mins by malachite green reagent based assay
Escherichia coli [11] = experiment: Antibacterial activity against carbapenem-resistant Escherichia coli BAA-2452 clinical isolates after 18 to 20 hrs in aerobic condition by CLSI-based broth microdilution assay; type: functional
Listeria monocytogenes [12] = experiment: Antibacterial activity against Listeria monocytogenes ATCC 19111 after 18 to 20 hrs in aerobic condition by CLSI-based broth microdilution assay; type: functional
Streptococcus pneumoniae [13] = experiment: Antibacterial activity against cephalosporin-resistant Streptococcus pneumoniae ATCC 51916 clinical isolates after 18 to 20 hrs by CLSI-based broth microdilution assay; type: functional
Klebsiella pneumoniae [14] = experiment: Ratio of MBC to MIC for Klebsiella pneumoniae BAA-1706 after 18 to 20 hrs in aerobic condition by CLSI-based broth microdilution assay; type: functional
Staphylococcus aureus [15] = experiment: Antibacterial activity against linezolid-resistant/Methicillin-resistant Staphylococcus aureus NRS119 clinical isolates after 18 to 20 hrs in aerobic condition by CLSI protocol based broth microdilution assay; type: functional
Escherichia coli [16] = experiment: microbe, parasite or virus in culture; conditions: ATCC 1411
Description: Antibacterial activity against Escherichia coli ATCC 1411 clinical isolates after 18 to 20 hrs in aerobic condition by CLSI-based broth microdilution assay

Salmonella enteritidis [17] = experiment: Antibacterial activity against Salmonella enteritidis ATCC 13076 clinical isolates after 18 to 20 hrs in aerobic condition by CLSI-based broth microdilution assay; type: functional, Salmonella enterica subsp. enterica serovar Enteritidis; conditions: Salmonella enterica
Escherichia coli [18] = experiment: Antibacterial activity against carbapenem-resistant Escherichia coli BAA-2469 clinical isolates after 18 to 20 hrs in aerobic condition by CLSI-based broth microdilution assay; type: functional
Escherichia coli [19] = experiment: Antibacterial activity against Escherichia coli BW25113 clinical isolates after 18 to 20 hrs in aerobic condition by CLSI-based broth microdilution assay; type: functional
Staphylococcus aureus [20] = experiment: Antibacterial activity against Methicillin-resistant Staphylococcus aureus USA700-NRS386 clinical isolates after 18 to 20 hrs in aerobic condition by CLSI protocol based broth microdilution assay; type: functional
Enterococcus faecium [21] = experiment: Antibacterial activity against vancomycin-resistant Enterococcus faecium ATCC 700221 clinical isolates after 18 to 20 hrs in aerobic condition by CLSI-based broth microdilution assay; type: functional
Staphylococcus aureus [22] = experiment: Antibacterial activity against Methicillin-sensitive Staphylococcus aureus NRS107 clinical isolates after 18 to 20 hrs in aerobic condition by CLSI protocol based broth microdilution assay; type: functional
Listeria monocytogenes [23] = experiment: Ratio of MBC to MIC for Listeria monocytogenes ATCC 19111 clinical isolates; type: functional
Staphylococcus aureus [24] = experiment: Antibacterial activity against methicillin-resistant Staphylococcus aureus NRS384-USA300 clinical isolates after 18 to 20 hrs in aerobic condition by CLSI protocol based broth microdilution assay; type: functional
Acinetobacter baumannii [25] = experiment: Antibacterial activity against Acinetobacter baumannii ATCC BAA 1141 clinical isolates after 18 to 20 hrs in aerobic condition by CLSI-based broth microdilution assay; type: functional
Acinetobacter baumannii [26] = experiment: Ratio of MBC to MIC for Acinetobacter baumannii NR 17785 clinical isolates; type: functional
Streptococcus pneumoniae [27] = experiment: Antibacterial activity against methicillin-resistant Streptococcus pneumoniae ATCC 700677 clinical isolates after 18 to 20 hrs by CLSI-based broth microdilution assay; type: functional
Enterococcus faecalis [28] = experiment: Ratio of MBC to MIC for vancomycin-resistant Enterococcus faecalis ATCC 51299 clinical isolates; type: functional
Pseudomonas aeruginosa [29] = experiment: microbe, parasite or virus in culture; conditions: ATCC 9027
Description: Antibacterial activity against Pseudomonas aeruginosa ATCC 9027 clinical isolates after 18 to 20 hrs in aerobic condition by CLSI-based broth microdilution assay

Acinetobacter baumannii [30] = experiment: Ratio of MBC to MIC for Acinetobacter baumannii NR 17786 clinical isolates; type: functional
Pseudomonas aeruginosa [31] = experiment: Ratio of MBC to MIC for Pseudomonas aeruginosa ATCC 15442 clinical isolates; type: functional
[32] = system: Staphylococcus epidermidis; experiment: Antibacterial activity against Staphylococcus epidermidis NRS101 after 18 to 20 hrs in aerobic condition by CLSI-based broth microdilution assay; type: functional
Shigella flexneri [33] = experiment: Ratio of MBC to MIC for Shigella flexneri ATCC 9199 clinical isolates; type: functional
Escherichia coli [34] = experiment: Antimicrobial activity against Escherichia coli JW55031 harboring deltatolC mutant after 18 to 20 hrs in aerobic condition by CLSI protocol based broth microdilution assay; type: functional
Klebsiella pneumoniae [35] = experiment: Antibacterial activity against carbapenem-resistant Klebsiella pneumoniae ATCC BAA-1705 clinical isolates after 18 to 20 hrs in aerobic condition by CLSI-based broth microdilution assay; type: functional
Salmonella typhimurium = experiment: Ratio of MBC to MIC for Salmonella typhimurium ATCC 700720 clinical isolates; type: functional, Salmonella enterica subsp. enterica serovar Typhimurium
Enterococcus faecium [36] = experiment: Ratio of MBC to MIC for vancomycin-resistant Enterococcus faecium ATCC 700221 clinical isolates; type: functional
Salmonella enteritidis [37] = experiment: Antibacterial activity against Salmonella enteritidis ATCC 14028 clinical isolates after 18 to 20 hrs in aerobic condition by CLSI-based broth microdilution assay; type: functional, Salmonella enterica subsp. enterica serovar Enteritidis; conditions: Salmonella enterica
Enterococcus faecalis [38] = experiment: Antibacterial activity against vancomycin-resistant Enterococcus faecalis ATCC 51299 clinical isolates after 18 to 20 hrs in aerobic condition by CLSI-based broth microdilution assay; type: functional
Escherichia coli [39] = experiment: Antibacterial activity against Escherichia coli ATCC 25922 clinical isolates after 18 to 20 hrs in aerobic condition by CLSI-based broth microdilution assay; type: functional
Escherichia coli [40] = experiment: Ratio of MBC to MIC for Escherichia coli ATCC 25922 clinical isolates; type: functional

C/C(=N\NC1=NCCN1)c1cnn(-c2ccc(C#CC3CCCC3)cc2)c1C
Ratio (Clostridioides difficile): <3 | Ratio (Streptococcus pneumoniae [1]): <3 | MIC (Acinetobacter baumannii [2]): 16 µg/mL (≈ 42.7 µM) | Ratio (Klebsiella pneumoniae [3]): >=1 | Ratio [4]: > 1 | Ratio [5]: <3 | MIC (Shigella flexneri [6]): 32 µg/mL (≈ 85.4 µM) | MIC (Escherichia coli [7]): 16 µg/mL (≈ 42.7 µM) | MIC (Pseudomonas aeruginosa [8]): 64 µg/mL (≈ 171 µM) | MIC (Salmonella enterica): 32 µg/mL (≈ 85.4 µM) | Activity (Staphylococcus aureus [9]): Active | inhibition (Escherichia coli [10]): inactive | MIC (Escherichia coli [11]): 16 µg/mL (≈ 42.7 µM) | MIC (Listeria monocytogenes [12]): 4 µg/mL (≈ 10.7 µM) | MIC (Streptococcus pneumoniae [13]): 8 µg/mL (≈ 21.4 µM) | Ratio (Klebsiella pneumoniae [14]): >=1 | MIC (Staphylococcus aureus [15]): 4 µg/mL (≈ 10.7 µM) | MIC (Escherichia coli [16]): 64 µg/mL (≈ 171 µM) | MIC (Salmonella enteritidis [17]): 32 µg/mL (≈ 85.4 µM) | MIC (Escherichia coli [18]): 32 µg/mL (≈ 85.4 µM) | MIC (Escherichia coli [19]): 64 µg/mL (≈ 171 µM) | MIC (Staphylococcus aureus [20]): 4 µg/mL (≈ 10.7 µM) | MIC (Enterococcus faecium [21]): 4 µg/mL (≈ 10.7 µM) | MIC (Staphylococcus aureus [22]): 2 µg/mL (≈ 5.34 µM) | Ratio (Listeria monocytogenes [23]): <3 | MIC (Staphylococcus aureus [24]): 4 µg/mL (≈ 10.7 µM) | MIC (Acinetobacter baumannii [25]): 16 µg/mL (≈ 42.7 µM) | Ratio (Acinetobacter baumannii [26]): >=1 | MIC (Streptococcus pneumoniae [27]): 4 µg/mL (≈ 10.7 µM) | Ratio (Enterococcus faecalis [28]): <3 | MIC (Pseudomonas aeruginosa [29]): 32 µg/mL (≈ 85.4 µM) | Ratio (Acinetobacter baumannii [30]): >=1 | Ratio (Pseudomonas aeruginosa [31]): >=1 | MIC [32]: 2 µg/mL (≈ 5.34 µM) | Ratio (Shigella flexneri [33]): >=1 | MIC (Escherichia coli [34]): 4 µg/mL (≈ 10.7 µM) | MIC (Klebsiella pneumoniae [35]): 64 µg/mL (≈ 171 µM) | Ratio (Salmonella typhimurium): >=1 | Ratio (Enterococcus faecium [36]): <3 | MIC (Salmonella enteritidis [37]): 32 µg/mL (≈ 85.4 µM) | MIC (Enterococcus faecalis [38]): 8 µg/mL (≈ 21.4 µM) | MIC (Escherichia coli [39]): 32 µg/mL (≈ 85.4 µM) | Ratio (Escherichia coli [40]): >=1

C/C(=N\NC(=N)N)c1cnn(-c2ccc(C#Cc3ccccc3)cc2)c1C
Ratio (Clostridioides difficile): <3 | Ratio (Streptococcus pneumoniae [1]): <3 | MIC (Acinetobacter baumannii [2]): 4 µg/mL (≈ 11.2 µM) | Ratio (Klebsiella pneumoniae [3]): >=1 | Ratio [4]: > 1 | Ratio [5]: <3 | MIC (Shigella flexneri [6]): 8 µg/mL (≈ 22.4 µM) | MIC (Escherichia coli [7]): 8 µg/mL (≈ 22.4 µM) | MIC (Pseudomonas aeruginosa [8]): 32 µg/mL (≈ 89.8 µM) | MIC (Salmonella enterica): 8 µg/mL (≈ 22.4 µM) | Activity (Staphylococcus aureus [9]): Active | inhibition (Escherichia coli [10]): inactive | MIC (Escherichia coli [11]): 8 µg/mL (≈ 22.4 µM) | MIC (Listeria monocytogenes [12]): 2 µg/mL (≈ 5.61 µM) | MIC (Streptococcus pneumoniae [13]): 1 µg/mL (≈ 2.81 µM) | Ratio (Klebsiella pneumoniae [14]): >=1 | MIC (Staphylococcus aureus [15]): 1 µg/mL (≈ 2.81 µM) | MIC (Escherichia coli [16]): 8 µg/mL (≈ 22.4 µM) | MIC (Salmonella enteritidis [17]): 8 µg/mL (≈ 22.4 µM) | MIC (Escherichia coli [18]): 8 µg/mL (≈ 22.4 µM) | MIC (Escherichia coli [19]): 8 µg/mL (≈ 22.4 µM) | MIC (Staphylococcus aureus [20]): 2 µg/mL (≈ 5.61 µM) | MIC (Enterococcus faecium [21]): 1 µg/mL (≈ 2.81 µM) | MIC (Staphylococcus aureus [22]): 2 µg/mL (≈ 5.61 µM) | Ratio (Listeria monocytogenes [23]): <3 | MIC (Staphylococcus aureus [24]): 1 µg/mL (≈ 2.81 µM) | MIC (Acinetobacter baumannii [25]): 4 µg/mL (≈ 11.2 µM) | Ratio (Acinetobacter baumannii [26]): >=1 | MIC (Streptococcus pneumoniae [27]): 2 µg/mL (≈ 5.61 µM) | Ratio (Enterococcus faecalis [28]): <3 | MIC (Pseudomonas aeruginosa [29]): 16 µg/mL (≈ 44.9 µM) | Ratio (Acinetobacter baumannii [30]): >=1 | Ratio (Pseudomonas aeruginosa [31]): >=1 | MIC [32]: 2 µg/mL (≈ 5.61 µM) | Ratio (Shigella flexneri [33]): >=1 | MIC (Escherichia coli [34]): 2 µg/mL (≈ 5.61 µM) | MIC (Klebsiella pneumoniae [35]): 16 µg/mL (≈ 44.9 µM) | Ratio (Salmonella typhimurium): >=1 | Ratio (Enterococcus faecium [36]): <3 | MIC (Salmonella enteritidis [37]): 16 µg/mL (≈ 44.9 µM) | MIC (Enterococcus faecalis [38]): 1 µg/mL (≈ 2.81 µM) | MIC (Escherichia coli [39]): 4 µg/mL (≈ 11.2 µM) | Ratio (Escherichia coli [40]): >=1
